This is an account of results in patent US20200347039A1, “CRYSTAL FORM OF RENAL OUTER MEDULLARY POTASSIUM CHANNEL INHIBITOR AND PREPARATION METHOD THEREOF” (JIANGSU HENGRUI MEDICINE CO., LTD., priority 2017, published 2020).

The series is described as follows: Pharmacokinetic experiment in SD rats after gavage (LC/MS/MS plasma concentration). It is filed as in vivo. The conditions noted are these: for AUClast: SD rat experiment (5 mg/kg).
The mark [1] stands for this setting: SD rats, po 5.0 mg/kg, suspension in 0.5% CMC-Na.
Where [2] appears, read: both sexes, rat, plasma, SD rats, po 5.0 mg/kg, suspension in 0.5% CMC-Na.

For `COc1cc(C(=O)NC2CCN(C[C@H](O)c3ccc4c(c3C)COC4=O)CC2)ncc1C#N` [free state], the AUClast was determined as 9283 ng·h/mL. Also, under setting [1], the T1/2 is on record as 3.62 h and the Vz/F_obs was 3.019 L/kg. Further, under setting [2], the AUC(0-t) is 9280 ng·h/mL.
For `COc1cc(C(=O)NC2CCN(C[C@H](O)c3ccc4c(c3C)COC4=O)CC2)ncc1C#N.O=C(O)C(O)C(O)C(=O)O` [Crystal form III, (R)-5-cyano-N-(1-(2-hydroxy-2-(4-methyl-1-carbonyl-1,3-dihydroisobenzofuran-5-yl)ethyl)piperidin-4-yl)-4-methoxypyridinecarboxamide tartrate], the AUClast was 12618 ng·h/mL. Also, under setting [2], the area under the curve AUC(0-t) came out at 12600 ng·h/mL, the CL/F worked out at 6.7 mL/min/kg and the half-life was 4.21 h. The Vd/F (both sexes, rat, plasma, SD rats, po 5.0 mg/kg, suspension in 0.5% CMC-Na, read-out: Vz/F_obs) was found to be 2.45 L/kg.

One may read the AUC(0-t) as exposure summed from dosing to a finite time, without extrapolation to infinity. Read a low AUC(0-t) as low exposure. For orientation: CL/F means the apparent clearance, not corrected for the fraction that reaches the circulation. What is called half-life is the time needed for the level to fall by half in the phase considered. Higher therefore signals slow decline.
